Our source for the germination rate and Inhibitory diameter values is US20200236933A1, “USE OF A NON-IONIC SURFACTANT WHICH IS A POLYOL DERIVATIVE AS A PLANT GROWTH STIMULATING AGENT OR AS AN ADJUVANT” (priority 2017, published 2020).

The test system of assay [1] is maize seeds. Kind of assay: Germination of maize seeds, comparison of surfactants (Examples 13-19). Conditions: maize seeds immersed 1 h in 0.75% solution. The format is in vivo. The protocol:
The treatment of the maize seeds consists of immersing them 1 h in a solution comprising water alone (control batch) or in a solution composed of 98.25% water and 0.75% of a polyol derivative non-ionic surfactant (treated batch, Sub4). The seeds are next dried in a heating tunnel at 45° C. for one hour. Two batch repetitions of 16 seeds are deposited on Petri dishes containing a medium composed of 2% Agar Agar and 98% water. The Petri dishes are kept at ambient temperature and in darkness. Each day the number of seeds that have germinated (having a radicle) is counted. The treatment of the maize seeds consists of immersing them 1 h in a solution comprising water alone (control batch) or in a solution composed of 98.25% water and 0.75% of a polyol derivative non-ionic surfactant (treated batch, Sub1). The seeds are next dried in a heating tunnel at 45° C. for one hour. Two batch repetitions of 16 seeds are deposited on Petri dishes containing a medium composed of 2% Agar Agar and 98% water. The Petri dishes are kept at ambient temperature and in darkness. Each day the number of seeds that have germinated (having a radicle) is counted. The treatment of the maize seeds consists of immersing them 1 h in a solution comprising water alone (control batch) or in a solution composed of 98.25% water and 0.75% of a polyol derivative non-ionic surfactant (treated batch, Sub7). The seeds are next dried in a heating tunnel at 45° C. for one hour. Two batch repetitions of 16 seeds are deposited on Petri dishes containing a medium composed of 2% Agar Agar and 98% water. The Petri dishes are kept at ambient temperature and in darkness. Each day the number of seeds that have germinated (having a radicle) is counted. The treatment of the maize seeds consists of immersing them 1 h in a solution comprising water alone (control batch) or in a solution composed of 98.25% water and 0.75% of a polyol derivative non-ionic surfactant (treated batch, Sub2). The seeds are next dried in a heating tunnel at 45° C. for one hour. Two batch repetitions of 16 seeds are deposited on Petri dishes containing a medium composed of 2% Agar Agar and 98% water. The Petri dishes are kept at ambient temperature and in darkness. Each day the number of seeds that have germinated (having a radicle) is counted. The treatment of the maize seeds consists of immersing them 1 h in a solution comprising water alone (control batch) or in a solution composed of 98.25% water and 0.75% of a polyol derivative non-ionic surfactant (treated batch, Sub3). The seeds are next dried in a heating tunnel at 45° C. for one hour. Two batch repetitions of 16 seeds are deposited on Petri dishes containing a medium composed of 2% Agar Agar and 98% water. The treatment of the maize seeds consists of immersing them 1 h in a solution comprising water alone (control batch) or in a solution composed of 98.25% water and 0.75% of a polyol derivative non-ionic surfactant (treated batch, Sub6). The seeds are next dried in a heating tunnel at 45° C. for one hour. Two batch repetitions of 16 seeds are deposited on Petri dishes containing a medium composed of 2% Agar Agar and 98% water. The treatment of the maize seeds consists of immersing them 1 h in a solution comprising water alone (control batch) or in a solution composed of 98.25% water and 0.75% of a polyol derivative non-ionic surfactant (treated batch, Sub5). The seeds are next dried in a heating tunnel at 45° C. for one hour. Two batch repetitions of 16 seeds are deposited on Petri dishes containing a medium composed of 2% Agar Agar and 98% water. The Petri dishes are kept at ambient temperature and in darkness. Each day the number of seeds that have germinated (having a radicle) is counted.

Assay [2] has as its system Aspergillus niger. Description: Fungicide effect by antibiogram type method. Conditions: positive control. The format is cell-based. The source says:
In order to evaluate any impact of the sugar esters used according to the invention on microorganisms, the fungicide effect was searched for by an antibiogram type method. The method consists of: • spreading a solution contaminated with the mold Aspergillus niger on the surface of a Petri dish containing glucose gel growth medium with chloramphenicol. • arrange 4 sterile antibiogram disks of 6 mm diameter per Petri dish. • inoculate with 3 drops (0.071 g) of solution to test or control solution per disk. The dishes are next placed in the incubator at 25° C. for 5 days. Measurement of the inhibitory diameter is carried out every day.

Turning to Sucrose palmitate, the values for the germination rate in assay [1] (D1) and in assay [1] (D2) were 28% and 78%, respectively.
In the case of Sorbitan laurate, the germination rate in assay [1] (D1) was found to be 31%; in assay [1] (D2), 78%.
Taken in the same sequence, the figures for Polyethoxylated sorbitan laurate were 25% and 78%.
The corresponding values for Glucose stearate are 34% and 78%.
As to `Fc1ccc([C@]2(Cn3cncn3)O[C@H]2c2ccccc2Cl)cc1` (racemic) [Epoxiconazole, reference compound], the Inhibitory diameter amounted to 0 mm in assay [2] (D1); 32 mm in assay [2] (D2); 30 mm in assay [2] (D3); 30 mm in assay [2] (D4); 29 mm in assay [2] (D5).
Consider `CCCCCCCCCCO[C@@H]1O[C@H](CO)[C@@H](O)[C@H](O)[C@H]1O` [decyl glucoside, Decyl glucoside], for which the germination rate in assay [1] (D1) was found to be 19%; in assay [1] (D2) it was 84%.
On to Methylglucose dioleate, for which the germination rate turned out to be 18% in assay [1] (D1) and 65% in assay [1] (D2).
The corresponding values for `CCCCCCCCCCCC(=O)N(C)C[C@H](O)[C@@H](O)[C@H](O)[C@H](O)CO` [N-lauroyl-N-methyl glucamide] are 28% and 65%.
